The source of these data is patent US7034035B2, “Fungicidal mono-, bi-, and tri-cycloheteroalkyl amides and their compositions, methods of use and preparation” (priority 1999, dated 2006).

Like-named read-outs stand apart in the source and are kept apart here. Bounds are passed on as bounds.

Data set [1] deals with Phytophthora infestans (PHYTIN). Put plainly: microbe, parasite or virus in culture. The class given is cell-based. The note with it: Phytophthora infestans, read-out: PHYTIN in vitro Growth Inhibition.
The test system of data set [2] is Phytophthora infestans—PHYTIN. Put plainly: whole plant or invertebrate. In kind it is in vivo. The note with it: Phytophthora, in Solanum lycopersicum, 24 h, read-out: PHYTIN in vivo 1 Day Protectant.
Data set [3] has as its system Puccinia recondita—PUCCRT. The data set can be described thus: Brown Rust of Wheat, in vivo whole plant, 24 Hour Protectant. Particulars: Puccinia, inoculated after 24 hours, read-out: PUCCRT in vivo 1 Day Protectant.
The subject of data set [4] is Stagonospora nodorum (Leptosphaeria nodorum—LEPTNO). The data set can be described thus: Inhibition of in vitro fungal growth, LEPTNO. In kind it is cell-based. Further details: inhibition of growth: dose or concentration left out as unconfirmed. The note with it: Leptosphaeria; in vitro fungal growth.
The test system of data set [5] is Magnaporthe grisea (Pyricularia oryzae—PYRIOR). Put plainly: microbe, parasite or virus in culture. In kind it is cell-based. The note with it: Pyricularia oryzae, read-out: PYRIOR in vitro Growth Inhibition.
The subject of data set [6] is Leptosphaeria nodorum—LEPTNO. Put plainly: Glume Blotch of Wheat, in vivo whole plant, 24 Hour Protectant. The note with it: Leptosphaeria, 24 h, inoculated after 24 hours, read-out: LEPTNO in vivo 1 Day Protectant.
For data set [7], the system named is Mycosphaerella graminicola (Septoria tritici—SEPTTR). The data set can be described thus: Inhibition of in vitro fungal growth, SEPTTR. The note with it: Zymoseptoria tritici; in vitro fungal growth. In kind it is cell-based. Set-up: inhibition of growth: dose or concentration left out as unconfirmed.
The next data set deals with Ustilago maydis (USTIMA). The data set can be described thus: microbe, parasite or virus in culture. The class given is cell-based. The note with it: Mycosarcoma maydis, read-out: USTIMA in vitro Growth Inhibition.
The subject of a further data set is Septoria tritici—SEPTTR. Put plainly: Leaf Blotch of Wheat, in vivo whole plant, 24 Hour Protectant. Particulars: Zymoseptoria tritici, inoculated after 24 hours, read-out: SEPTTR in vivo 1 Day Protectant.
Data set [8] deals with Rhizoctonia solani (RHIZSO). The data set can be described thus: microbe, parasite or virus in culture. In kind it is cell-based. Particulars: Rhizoctonia solani, read-out: RHIZSO in vitro Growth Inhibition.
Another data set deals with Erysiphe graminis—ERYSGT. Put plainly: Powdery Mildew of Wheat, in vivo whole plant, 24 Hour Protectant. The note with it: Erysiphe, in Triticum aestivum, 24 h, read-out: ERYSGT in vivo 1 Day Protectant.
Setting [9] is: wheat (cultivar Yuma), sprayed at 100 ppm, control of fungal infection vs untreated plants.
The mark [10] stands for this setting: wheat plants sprayed at 100 ppm, control vs untreated plants.

What is called melting point is the temperature, or range, at which the solid turns liquid. `Cc1ccnc(C(=O)NC2C(=O)OC(=O)[C@H](Cc3ccccc3)[C@@H](OC(=O)C(C)C)[C@H](C)OC2=O)c1O` (stereo partly drawn) [Compound 237] showed a melting point of 122 to 134 °C. In addition, the inhibition of growth at 25 µg/mL in data set [1] was less than 80%. In data set [2], the pest or weed control at 100 ppm is less than 25%. For the same molecule, in data set [3] (setting [9]), the pest or weed control at 100 ppm was 75 to 100%. The same molecule yielded an inhibition of growth in data set [4] of less than 80%. Moreover, the inhibition of growth at 25 µg/mL in data set [5] is less than 80%. Also, the pest or weed control at 100 ppm in data set [6] (setting [9]) was 25 to 74%. Besides, in [7], the inhibition of growth is less than 80%. Besides, the inhibition of growth at 25 µg/mL in the data set on Ustilago maydis (USTIMA) was less than 80%. Besides, the pest or weed control at 100 ppm with Septoria tritici—SEPTTR (setting [9]) lay in the range of 25 to 74%. For the same molecule, the inhibition of growth at 25 µg/mL in [8] was less than 80%. Besides, in the data set with Erysiphe graminis—ERYSGT, the pest or weed control at 100 ppm was less than 25%.
Regarding `CC(C)C(=O)O[C@H]1[C@H](C)OC(=O)[C@@H](NC(=O)c2cccnc2O)COC(=O)[C@@H]1Cc1ccccc1` [Compound 523], the melting point is 188 to 190 °C (dec.). Further, the pest or weed control at 100 ppm in data set [2] is 25 to 74%. For the same molecule, the pest or weed control at 100 ppm in [3] (setting [10]) lay in the range of 25 to 74%. Moreover, in data set [6] (setting [10]), the pest or weed control at 100 ppm lay in the range of 75 to 100%. Besides, the pest or weed control at 100 ppm in the data set on Septoria tritici—SEPTTR (setting [10]) fell in the range of 25 to 74%. For the same molecule, in the data set on Erysiphe graminis—ERYSGT, the pest or weed control at 100 ppm was in the range of 25 to 74%.
For `COc1ccnc(C(=O)Nc2cccc(CC3CC(C)(C)OC(C)(C)C3)c2)c1O` [Compound 460], the melting point was in the range of 149 to 153 °C. Further, the pest or weed control at 100 ppm in data set [2] was less than 25%. The pest or weed control at 100 ppm in data set [3] (setting [10]) was in the range of 25 to 74%. Besides, the pest or weed control at 100 ppm in data set [6] (setting [10]) was 25 to 74%. In addition, the pest or weed control at 100 ppm in the data set with Septoria tritici—SEPTTR (setting [10]) was in the range of 25 to 74%. In addition, in the data set on Erysiphe graminis—ERYSGT, the pest or weed control at 100 ppm was in the range of 25 to 74%.
